Tests used:
Assay type in all cases: cell-based
[1] = molecular target: T1, ligand binding domain of LXRα-RXR heterodimers (Homo sapiens, UniProt Q13133); experiment: LXR ligand binding domain mediated activity, UASGx4 TK-Luc reporter in CV-1 cells; details: 20 μM
T1 construct: expressed in transfected cells; host or cells: CV-1 cells
T1 sequence (Q13133 209-447 limits assumed): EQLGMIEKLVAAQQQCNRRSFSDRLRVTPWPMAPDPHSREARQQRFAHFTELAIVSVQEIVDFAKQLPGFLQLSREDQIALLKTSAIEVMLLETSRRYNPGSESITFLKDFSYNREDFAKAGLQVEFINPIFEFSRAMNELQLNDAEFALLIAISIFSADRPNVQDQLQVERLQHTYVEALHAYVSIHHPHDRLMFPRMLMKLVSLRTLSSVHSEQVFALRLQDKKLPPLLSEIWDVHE
T1 sequence (P19793 227-458 partner limits assumed): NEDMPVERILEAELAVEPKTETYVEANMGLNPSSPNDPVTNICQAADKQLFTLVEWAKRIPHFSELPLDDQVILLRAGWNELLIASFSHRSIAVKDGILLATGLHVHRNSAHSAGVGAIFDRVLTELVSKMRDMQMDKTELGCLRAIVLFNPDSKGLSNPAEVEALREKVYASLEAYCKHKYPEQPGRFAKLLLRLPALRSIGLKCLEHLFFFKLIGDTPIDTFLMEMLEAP
Experimental: (§1) CV-1 cells were grown in DMEM supplemented with 10% resin-charcoal stripped fetal bovine serum, 50 U/ml penicillin G and 50 μg/ml streptomycin sulfate at 37° C. in 5% CO2. Cells were plated to 50-80% confluence one day prior to transfection using phenol red-free DMEM-FBS. The cells were transfected by lipofection using N-[1-(2,3-dioleoyloxy)propyl]-N,N,N-ammonium methyl sulfate according to manufacturer's instructions (Boehringer Mannheim).
(§2) Genes encoding the following full-length proteins, which are suitable for use in the studies described herein, were cloned into pCMX: human RXRα (Gene Bank accession X52773) and human LXRα (GenBank accession U22662). The cells were transfected with CMX-βgal and luciferase constructs. The CMX-βGal construct contained the ligand binding domain of human RXR (hRXRα) and the ligand binding domain of human LXRα (hLXRα) as indicated in FIG. 1. The luciferase reporter construct (LXREx3 TK-Luc) contained the herpes virus thymidine kinase promoter (−105/+51) linked to three copies of the response element LXRE. After transfection, the cells were treated with 20 μM of a synthetic azole test compound or vehicle alone for 40 hours in phenol red-free DMEM-FBS. After exposure to the candidate antagonist compounds, cells were harvested and assayed for luciferase and β-galactosidase activity.
The reporter gene was UASGx4 TK-Luc.

NIH 3T3-L1 cells = experiment: Toxicity in NIH 3T3-L1 cells during differentiation; details: 200 nM T0901317, 7.5 μM Clotrimazole or both, 7 days
Experimental: NIH 3T3-L1 cells were maintained in growth media consisting of Dulbecco's modified Eagle's medium (DMEM) supplemented with 10% calf bovine serum (CBS), 50 U/ml penicillin G and 50 μg/ml streptomycin sulfate. To induce NIH 3T3-L1 differentiation into adipocytes, confluent cells were transferred from their growth media to DMEM containing 10% fetal bovine serum (FBS), 5 μg/ml insulin, 0.5 mM 3-isobutyl-1-methylxanthine (IBMX) and 1 μM dexamethasone for 7 days. During the differentiation period, cells also optionally received 200 nM T0901317, 7.5 μM Clotrimazole or both.

LXRα = molecular target: T2, LXRα (Homo sapiens, UniProt Q13133); experiment: Transient transfection assay Gal-hLXRα + RXR LBD, UASGx4 TK Luc reporter, CV-1 cells
T2 construct: expressed in transfected cells; host or cells: CV-1 cells
T2 sequence (Q13133 209-447 limits assumed): T1 sequence (Q13133 209-447 limits assumed)
T2 sequence (P19793 227-458 partner limits assumed): T1 sequence (P19793 227-458 partner limits assumed)
Experimental: Synthetic compounds were screened in an effort to find more specific LXR inhibitors. CV-1 cells were maintained and transfected using known methods. Forman et al., Cell 81: 687-693, 1995. CV-1 cells were transiently transfected with Gal-hLXRα, the RXR LBD, the UASGx4 TK Luc reporter and CMX-β-gal as an internal control, either in standard or in lipid-stripped serum. After transfection, cells were treated for approximately 40 hours with phenol red-free DMEM-FBS containing the indicated compounds at the following concentrations: T0901317 (100 nM), Clotrimazole (10 μM), S883417(10 μM) and S100250 (10 μM), unless otherwise specified. After exposure to ligand, the cells were harvested and assayed for luciferase and β-galactosidase activity. The luciferase activity was normalized to the internal β-galactosidase control (reporter activity).
The ability of these compounds to repress LXRα and LXRβ was compared by transfecting CV-1 cells with either the RXR LBD alone or the RXR LBD together with either Gal-LXRα or Gal-LXRβ.
Transfections were performed as described above, with increasing concentrations of Clotrimazole.

[2] = molecular target: T3, LXRα-RXR heterodimers and receptor interaction domains of coactivator SRC1 (Homo sapiens, UniProt Q13133); experiment: LXR-coactivator association, VP-L-hLXRα / L-hRXRα / GAL4-SRC1 in CV-1 cells; details: 20 μM, coactivator GAL4-SRC1, CV-1 cells
T3 construct: expressed in transfected cells; host or cells: CV-1 cells
T3 sequence (Q13133 209-447 limits assumed): T1 sequence (Q13133 209-447 limits assumed)
T3 sequence (P19793 227-458 partner limits assumed): T1 sequence (P19793 227-458 partner limits assumed)
Experimental: as §1
as §2, with “DMEM-FBS.” for “DMEM-FBS. After exposure to the candidate antagonist compounds, cells were harvested and assayed for luciferase and β-galactosidase activity.”
VP-L-hLXRα contains the transactivation domain of Herpes VP16, linked to the LBD of human LXRα, L-hRXRα is the LBD of human RXRα. UASGx4 TK-Luc was the reporter gene, and the assay additionally included the coactivator GAL4-SRC1. Treatment with 20 μM azole compound as indicated was able to inhibit interactions between LXRα-RXR heterodimers and the receptor interaction domains from the coactivator SRC1.

## Clc1ccccc1C(c1ccccc1)(c1ccccc1)n1ccnc1 [Clotrimazole]
[1]
  inhibition of constitutive activation by the LXRα-RXR ligand binding domain (UASGx4 TK-Luc): inhibit constitutive activation
NIH 3T3-L1 cells
  toxicity: No toxicity
LXRα; 10 μM, approximately 40 hours, lipid-stripped serum
  repression of LXRα activity: powerful antagonist
LXRα; dose-response, FIG. 5
  antagonist potency LXRα compared with LXRβ: more potent antagonist of LXRα than LXRβ
LXRα; dose-response, increasing concentrations, read-out: EC50 for repression of LXRα constitutive activity
  EC50: ~10 µM
[2]
  inhibition of LXR-coactivator association: inhibition of LXR-coactivator association
